Reference: ChEMBL document CHEMBL1201862, “PubChem BioAssay data set” (2004)
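Cultured in 96-well plates, cells were exposed to test compound for 48 hours across five concentrations. At the GI50, growth is halved.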 Activity calls are given as the source filed them. No stated cut-off is given here; in the data, active = GI50 up to about 1.1 µM and inactive = higher. *1 amine or outer side, *2 acyl side, *3 side chain or, on linkers, in order; H or OH if unused. Where a SMILES comes first, the peptide text is derived from it. [ ]: non-standard residue; d: D form. The star is where a group is joined. ξ: configuration not given here. X26 = O=C([C@H]1CCC[C@H]1N[*:1])[*:2]; ξW = NC(Cc1c[nH]c2ccccc12)C(=O)O; ξF = NC(Cc1ccccc1)C(=O)O; Boc = CC(C)(C)OC(=O)*; ξK = NCCCCC(N)C(=O)O; ξT = CC(O)C(N)C(=O)O; tBu = CC(C)(C)*

How the values were obtained:
Assay in all cases: inhibition of tumour cell growth, NCI panel, 48 h
A549 = system: A549
CAKI-1 = system: CAKI-1
DU-145 = system: DU-145
HCC 2998 = system: HCC 2998
HCT-116 = system: HCT-116
IGROV-1 = system: IGROV-1
KM12 = system: KM12
Malme-3M = system: Malme-3M
NCI-H226 = system: NCI-H226
NCI-H23 = system: NCI-H23
OVCAR-5 = system: OVCAR-5
PC-3 = system: PC-3
RPMI-8226 = system: RPMI-8226
RXF 393 = system: RXF 393
SF-268 = system: SF-268
SK-MEL-2 = system: SK-MEL-2
SN12C = system: SN12C
TK-10 = system: TK-10
UO-31 = system: UO-31
A498 = system: A498

Measured: GI50

CC1=NN(C(=O)CC(=O)Nc2ccccc2Cl)C(=O)C1/N=N\c1ccc(S(=O)(=O)c2ccc(/N=N/C3C(=O)N(C(=O)CC(=O)Nc4ccccc4Cl)N=C3C)cc2)cc1 (stereo unspecified)
inactive: A549 > 100 µM | CAKI-1 > 100 µM | DU-145 > 100 µM | HCC 2998 > 100 µM | HCT-116 > 100 µM | IGROV-1 > 100 µM | KM12 > 100 µM | Malme-3M > 100 µM | NCI-H226 > 100 µM | NCI-H23 > 100 µM | OVCAR-5 > 100 µM | PC-3 > 100 µM | RPMI-8226 > 100 µM | RXF 393 > 100 µM | SF-268 > 100 µM | SK-MEL-2 > 100 µM | SN12C > 100 µM | TK-10 > 100 µM | UO-31 > 100 µM

CN1CCOC(c2ccccc2)O1 (stereo unspecified)
inactive: A498 > 100 µM | A549 > 100 µM | CAKI-1 > 100 µM | HCC 2998 > 100 µM | HCT-116 > 100 µM | IGROV-1 > 100 µM | KM12 > 100 µM | Malme-3M > 100 µM | NCI-H226 > 100 µM | NCI-H23 > 100 µM | OVCAR-5 > 100 µM | RPMI-8226 > 100 µM | RXF 393 > 100 µM | SF-268 > 100 µM | SK-MEL-2 > 100 µM | SN12C > 100 µM | TK-10 > 100 µM | UO-31 > 100 µM

CC1OC(CC(=O)O)Cc2c(O)c3c(c(O)c21)C(=O)C=C(C1=CC(=O)c2c(O)c4c(c(O)c2C1=O)CC(CC(=O)O)OC4C)C3=O (stereo unspecified)
inactive: A498 18.9 µM | A549 45.1 µM | CAKI-1 29.1 µM | HCC 2998 46.3 µM | HCT-116 10.9 µM | IGROV-1 30.7 µM | KM12 39.1 µM | Malme-3M 14.5 µM | NCI-H226 50.8 µM | NCI-H23 17.6 µM | OVCAR-5 43.8 µM | RPMI-8226 12.4 µM | RXF 393 6.14 µM | SF-268 32 µM | SK-MEL-2 21.2 µM | SN12C 16.6 µM | TK-10 57.9 µM | UO-31 47.2 µM

C=CC[C@H]1O[Si](C(C)(C)C)(C(C)(C)C)[C@H](C)[C@H]1C
inactive: A498 > 100 µM | A549 > 100 µM | CAKI-1 > 100 µM | HCC 2998 > 100 µM | HCT-116 > 100 µM | IGROV-1 > 100 µM | KM12 > 100 µM | Malme-3M 20.3 µM | NCI-H226 > 100 µM | NCI-H23 > 100 µM | OVCAR-5 > 100 µM | PC-3 > 100 µM | RPMI-8226 > 10 µM | SK-MEL-2 > 100 µM | SN12C > 100 µM | TK-10 > 100 µM | UO-31 > 100 µM

NCCN/C(=N\c1ccccc1)Nc1ccccc1
inactive: A549 > 100 µM | CAKI-1 > 100 µM | DU-145 > 100 µM | HCC 2998 > 100 µM | HCT-116 94.2 µM | IGROV-1 > 100 µM | KM12 > 100 µM | Malme-3M > 100 µM | NCI-H226 > 100 µM | NCI-H23 > 100 µM | PC-3 55.6 µM | RPMI-8226 > 100 µM | RXF 393 24.3 µM | SF-268 > 100 µM | SK-MEL-2 > 100 µM | SN12C > 100 µM | TK-10 > 100 µM | UO-31 > 100 µM

COc1cc(C2S/C(=C/c3ccccc3)C(=O)N2c2cccc([N+](=O)[O-])c2)cc(OC)c1OC (stereo unspecified)
inactive: A498 > 100 µM | A549 > 100 µM | CAKI-1 48.8 µM | HCC 2998 > 100 µM | HCT-116 36.2 µM | KM12 28.8 µM | Malme-3M > 100 µM | NCI-H226 > 100 µM | NCI-H23 > 100 µM | OVCAR-5 > 100 µM | PC-3 > 100 µM | SF-268 76.2 µM | SK-MEL-2 15.9 µM | SN12C > 100 µM | TK-10 > 100 µM | UO-31 94.6 µM

COc1ccccc1NS(=O)(=O)c1cc(C(C)(C)C)ccc1OCCOc1ccc(C(C)(C)C)cc1S(=O)(=O)Nc1ccccc1OC
inactive: A498 > 100 µM | A549 > 100 µM | CAKI-1 > 100 µM | HCC 2998 > 100 µM | HCT-116 > 100 µM | IGROV-1 > 100 µM | KM12 45.4 µM | Malme-3M > 100 µM | NCI-H226 > 100 µM | NCI-H23 > 100 µM | OVCAR-5 > 100 µM | RPMI-8226 > 100 µM | RXF 393 > 100 µM | SF-268 > 100 µM | SK-MEL-2 > 100 µM | SN12C > 100 µM | TK-10 > 100 µM | UO-31 > 100 µM

COc1ccc2c(c1)C=C([N+](=O)[O-])C(C1OC(C)(C)OC1C1COC(C)(C)O1)O2 (stereo unspecified)
inactive: A498 18 µM | A549 18 µM | CAKI-1 4.51 µM | DU-145 16 µM | HCC 2998 13.3 µM | HCT-116 1.79 µM | IGROV-1 14.6 µM | KM12 2 µM | Malme-3M 2.31 µM | NCI-H226 14.6 µM | NCI-H23 11.6 µM | OVCAR-5 8.04 µM | RPMI-8226 1.67 µM | RXF 393 1.98 µM | SF-268 3.5 µM | SK-MEL-2 1.87 µM | SN12C 4.91 µM | TK-10 18.4 µM | UO-31 13.1 µM

CN(C)CCN(C)CC1COC(C)(C)O1 (stereo unspecified)
inactive: A498 > 100 µM | A549 > 100 µM | CAKI-1 > 100 µM | HCC 2998 > 100 µM | HCT-116 > 100 µM | IGROV-1 > 100 µM | KM12 > 100 µM | Malme-3M > 100 µM | NCI-H226 > 100 µM | NCI-H23 > 100 µM | OVCAR-5 > 100 µM | RPMI-8226 > 100 µM | RXF 393 > 100 µM | SF-268 > 100 µM | SK-MEL-2 > 100 µM | SN12C > 100 µM | TK-10 > 100 µM | UO-31 > 100 µM

CC(C)c1c(O)ccc2c1CCC1C(C)(C)CCCC21C (stereo unspecified)
inactive: A549 17 µM | CAKI-1 16.3 µM | DU-145 14.8 µM | HCC 2998 22 µM | HCT-116 17.2 µM | IGROV-1 16.3 µM | KM12 20.5 µM | Malme-3M 18.6 µM | NCI-H226 17.7 µM | NCI-H23 17.3 µM | OVCAR-5 14.6 µM | PC-3 17.6 µM | RPMI-8226 22.9 µM | RXF 393 15.1 µM | SF-268 19.9 µM | SK-MEL-2 16.7 µM | SN12C 14.5 µM | TK-10 20.7 µM | UO-31 17.4 µM

CC(C)OP(=O)(CCCCCCCCC/C=C/c1ccc2c(c1)OCCOCCOCCOCCO2)OC(C)C
inactive: A549 3.49 µM | CAKI-1 3.51 µM | DU-145 4.59 µM | HCC 2998 4.04 µM | HCT-116 3.38 µM | IGROV-1 4.46 µM | KM12 2.8 µM | Malme-3M 3.73 µM | NCI-H226 3.37 µM | NCI-H23 2.85 µM | OVCAR-5 3.42 µM | PC-3 2.84 µM | RPMI-8226 1.41 µM | RXF 393 2.7 µM | SF-268 3.8 µM | SK-MEL-2 2.96 µM | SN12C 3.36 µM | TK-10 9.29 µM | UO-31 2.72 µM

Cc1ccc(-c2c(C#N)c(O)n(NS(=O)(=O)c3ccccc3)c(=O)c2C#N)cc1
inactive: A498 > 100 µM | A549 > 100 µM | CAKI-1 > 100 µM | HCC 2998 > 100 µM | HCT-116 > 100 µM | IGROV-1 > 100 µM | KM12 > 100 µM | Malme-3M > 100 µM | NCI-H226 > 100 µM | OVCAR-5 > 100 µM | PC-3 > 100 µM | RXF 393 > 100 µM | SF-268 > 100 µM | SK-MEL-2 > 100 µM | SN12C > 100 µM | TK-10 > 100 µM

CC(=O)Oc1ccn2nc(C)c(Cc3c(C)nn4ccc(OC(C)=O)cc34)c2c1
inactive: A549 > 100 µM | CAKI-1 51.8 µM | DU-145 > 100 µM | HCT-116 > 100 µM | IGROV-1 > 100 µM | KM12 > 100 µM | Malme-3M > 100 µM | NCI-H226 > 100 µM | NCI-H23 > 100 µM | OVCAR-5 > 100 µM | PC-3 > 10 µM | SF-268 > 100 µM | SK-MEL-2 34.6 µM | SN12C > 100 µM | TK-10 > 100 µM

CC(NC(=O)C1CCCN1C(=O)CNC(=O)OC(C)(C)C)C(=O)O (stereo not drawn) (Boc-Gly-Pro-Ala-OH; configuration not given here)
inactive: A549 > 100 µM | CAKI-1 > 100 µM | DU-145 > 100 µM | HCC 2998 > 100 µM | IGROV-1 > 100 µM | KM12 > 100 µM | Malme-3M > 100 µM | NCI-H226 > 100 µM | NCI-H23 > 100 µM | OVCAR-5 > 100 µM | PC-3 > 100 µM | RPMI-8226 > 100 µM | RXF 393 > 100 µM | SF-268 > 100 µM | SK-MEL-2 > 100 µM | SN12C > 100 µM | TK-10 > 100 µM | UO-31 > 100 µM

CC(OC(C)(C)C)C1NC(=O)C(CCCCNC(=O)OC(C)(C)C)NC(=O)C(Cc2c[nH]c3ccccc23)NC(=O)C(Cc2ccccc2)NC(=O)[C@H]2CCC[C@H]2NC(=O)C(Cc2ccccc2)NC1=O (stereo partly specified) (cyclo([X26][ξF][ξW][ξK](Boc)[ξT](tBu)[ξF]))
inactive: A549 73.3 µM | CAKI-1 > 100 µM | DU-145 93.8 µM | HCC 2998 12.2 µM | HCT-116 7.26 µM | IGROV-1 50.4 µM | KM12 > 100 µM | Malme-3M > 100 µM | NCI-H226 39.2 µM | NCI-H23 23.8 µM | OVCAR-5 17.9 µM | PC-3 6.37 µM | RPMI-8226 8.71 µM | RXF 393 > 100 µM | SF-268 > 100 µM | SK-MEL-2 26.1 µM | SN12C 17.2 µM | UO-31 > 100 µM
